Structures are written as SMILES.

This data set in a line: gradient 5% acetonitrile 3 min, to 50% in 2 min, to 85% in 15 min, held 3 min, 100 µL/min. The note with it: column: Zorbax Extend-C18 2.1 x 50 mm; eluents: water / acetonitrile, 0.1% formic acid. In a few lines: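 Over 3 months, pure standards in mixtures of ~100 molecules were run by HPLC coupled to a quadrupole time-of-flight mass spectrometer in positive and negative ionization mode. The column was a Zorbax Extend-C18 (2.1 × 50 mm, 1.8 μm) at 100 μL/min, eluted with water and acetonitrile each holding 0.1% formic acid, with 40 μL dead and 900 μL dwell volumes. Retention time was determined from adduct peaks chosen by software and checked manually.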
Regarding `Cc1ccc(OCC(=O)Nc2cc3c(cc2N(C)C)n(C)c(=O)c(=O)n3C)c(C)c1`, the RP-LC retention time is 962 s.
Under `Cc1ccc(-c2noc(CN3N=NC4C(=O)N(c5ccc(C)cc5)C(=O)C43)n2)cc1` (stereo not given) stands 1020 s; under `Cc1ccc2c(c1)N(S(C)(=O)=O)CCC(C(=O)Nc1ccc(F)cc1)O2` (stereo not given), 930 s.
Under `Cc1sc(NC(=O)c2ccccc2Br)nc1-c1ccc2c(c1)N(C)C(=O)CO2` stands 960 s.
As to `O=C(NCCN1CCOCC1)c1nc2ccccn2c1-c1ccc(F)cc1`, the RP-LC retention time stood at 616 s.
Under `Cc1ccc(C)c(S(=O)(=O)N2CC(c3noc(C)n3)C3(CCOCC3)C2)c1` (stereo not given) stands 929 s; under `Cc1cc(C)cc(Oc2nccn3c(=O)n(CC(=O)Nc4ccccc4C)nc23)c1`, 838 s; under `c1cc2c(cc1-c1nnc(C3CC3)o1)OCO2`, 781 s.
In turn, `O=S(=O)(Cc1ccccc1)N1CCCCC1c1nc(-c2ccccc2)n[nH]1` (stereo not given) displayed an RP-LC retention time of 943 s.
Under `COCCNC(=O)c1ccc(-n2nc(C)c3c2CCCC3=O)cc1` stands 633 s; under `CC1CC(C)CN(CCCNC(=O)c2ccc3c(c2)NC(=O)CS3)C1` (stereo not given), 605 s; under `COc1cccc(CNC2=NCCNC23CCN(S(=O)(=O)c2ccc(C)cc2)CC3)c1`, 717 s.
Turning to `Cc1nc(C)c(C(=O)N2CCCC(c3nnc(-c4ccc5c(c4)OCO5)o3)C2)s1` (stereo not given), the RP-LC retention time is 669 s.
As for `CSc1ccc(-c2nc3cnccn3c2Nc2cccc(C(=O)NC3CCCCC3)c2)cc1`, the RP-LC retention time was 892 s.
Under `CCCN1CCN(C(=O)c2ccc(-c3ccc(N4CCSCC4)nc3)cc2)CC1` stands 560 s; under `Cc1ccccc1N1CCN(C(=O)c2ccc(CN3CCN(C(C)C)C(=O)C3=O)cc2)CC1`, 811 s; under `CCCNC(=O)c1cc(-c2ccccc2)cn1C`, 910 s.
Under `O=C(c1ccoc1)N1CCCC(c2nnc3n2CCN(C(=O)C2CC2)C3)C1` (stereo not given) stands 591 s.
Molecule `COc1ccc(NC(=O)N2[C@H]3CC[C@@H]2c2cnc(-c4ccc(F)cc4)nc2C3)cc1OC` yielded an RP-LC retention time of 875 s.
Under `Cc1noc(C2CCCCN2C(=O)c2ccoc2)n1` (stereo not given) stands 670 s; under `O=C(NC1CCCCC1)C1CCCN(C(=O)c2ccc(F)c(F)c2)C1` (stereo not given), 825 s.
For `CCn1c(CCNC(=O)c2cc(C)cc(C)c2)nc2cccnc21`, the RP-LC retention time was determined as 666 s.
Regarding `COC(=O)c1ccc(NC(=O)N(Cc2cc(=O)[nH]c3ccccc23)CC(C)C)cc1`, the RP-LC retention time is 830 s.
`O=C(NCc1ccc2c(c1)OCO2)C1=CCN(Cc2ccccc2)CC1` yielded an RP-LC retention time of 607 s.
Under `CCOC(=O)C1=CN(Cc2ccccc2)C=C(C(=O)OCC)C1c1ccccc1` stands 1130 s; under `O=C(C1CCN(c2cnc(N3CCCC3)nc2)CC1)N1CCCCC1`, 616 s; under `CCN(CC)S(=O)(=O)c1ccc2c(c1)N(CC(=O)NC1CCCCCC1)C(=O)C1CCCCN21` (stereo not given), 1050 s.
`Cc1ccc(NC(=O)N2CCN(c3ccc(=O)n(-c4ccccc4)n3)CC2)cc1`: the RP-LC retention time came to 674 s.
In turn, `CC(C)n1cnc2cc(CNC(=O)c3ccccc3F)ccc21` came in with an RP-LC retention time of 606 s.
For the molecule `CCc1nn2c(CNC(=O)c3ccc(C)cc3)c(-c3ccccc3)nc2s1`, the RP-LC retention time came to 950 s.
Under `Cc1[nH]c(C(=O)Nc2cccc(Cl)c2)c(C)c1S(=O)(=O)N1CCCC1` stands 943 s.
For the molecule `COc1ccc(OC)c(NC(=O)Cn2ncc3c(c2=O)N(C2CC2)C(=O)CS3)c1`, the RP-LC retention time was 724 s.
Under `Cc1c(Cl)cccc1N1C(=O)CN(S(C)(=O)=O)CC1(C)C(=O)NC1CCCCC1` (stereo not given) stands 892 s.
Under `CCOC(=O)c1[nH]c(C)c(CCC(=O)N2CCC(C(=O)NCCC(C)C)CC2)c1C` stands 798 s; under `Cn1c(=O)n(C)c2cc(N3CCOCC3)c(NC(=O)NCc3cccc(F)c3)cc21`, 705 s; under `Cc1cccc(CN2CCN(C3CCN(C(=O)Nc4ccc5c(c4)OCO5)CC3)C2=O)c1`, 836 s.
Under `CCOC(=O)c1[nH]c(C)c(CCC(=O)N2CCC(C(=O)NCCCc3ccccc3)CC2)c1C` stands 842 s; under `Cc1ccc(CNC(=O)Cn2cnc3c(sc4nc(-c5ccccc5)ccc43)c2=O)cc1`, 880 s.
The molecule `CCCc1nc2ccc(CCC(=O)Nc3ccc(OC)c(OC)c3)cc2[nH]1` showed an RP-LC retention time of 610 s.
For `O=C1NC2(CCN(C(=O)Nc3ccccc3F)CC2)N=C1c1cccc(Cl)c1`, the RP-LC retention time came out at 839 s.
Under `Cc1ccc(CNC(=O)N(C)CCc2noc(-c3ccc(F)cc3)n2)cc1` stands 915 s.
For the molecule `CCCc1nc2ccc(CCC(=O)Nc3cc(OC)cc(OC)c3)cc2[nH]1`, the RP-LC retention time was determined as 657 s.
The molecule `Cc1cc(NC(=O)NCCc2c(C)nn(C)c2C)ccc1Br` returned an RP-LC retention time of 705 s.
Under `CCN(c1ccccc1)c1nc(Cl)nc2c1cnn2C` stands 1070 s.
Under `Cc1c(Cl)cccc1NC(=O)C(=O)NC1CCCC1` stands 964 s.
Under `COc1ccc2c(c1)C(OC(C)C)=C(C(N)=O)S2=O` (stereo not given) stands 623 s.
Turning to `O=C(c1ccc(-c2cncnc2)nc1)N1CCN(c2ccccc2Cl)CC1`, the RP-LC retention time came to 829 s.
Under `Cc1ccc2c(Nc3ccc(F)c(C)c3)c(-c3nc(C)no3)cnc2n1` stands 764 s; under `CCOC(=O)Cc1ccc(NC(=O)N2CCC(n3c(C)nc4cccnc43)C2)cc1` (stereo not given), 598 s.
`CN(C)c1cccc(-c2nc(-c3ccc4c(c3)nnn4CCN3CCOCC3)no2)c1` returned an RP-LC retention time of 706 s.
Under `CCOc1ccc(CNCCSc2nnnn2C)cc1Cl` stands 618 s; under `N[C@@H](Cc1cc(CP(=O)(O)O)cc(-c2ccccc2Cl)c1)C(=O)O`, 647 s.
Under `CCCS(=O)(=O)Nc1ccc(F)c(C(=O)c2c[nH]c3ncc(-c4ccc(Cl)cc4)cc23)c1F` stands 1130 s; under `Cc1ccccc1Nc1c(-c2ccccn2)nc2cnccn12`, 941 s.
As to `CCN1C(=O)c2cccnc2Sc2cc(NC(=O)c3ccc(F)c(F)c3)ccc21`, the RP-LC retention time was 874 s.
In the case of `CC(C)CCN1CCC(N(Cc2cccnc2)C2CCOCC2)CC1`, the RP-LC retention time amounted to 551 s.
Under `O=C(NCc1cccc(F)c1)c1cn2ccncc2n1` stands 672 s.
For `CC(=O)N1CCC2(CC1)CC(CCO)CCO2` (stereo not given), the RP-LC retention time amounted to 575 s.
Under `Cc1ccc(NC(=O)N(C)CC2CCOC2)cc1` (stereo not given) stands 667 s; under `COc1ncccc1CNC(=O)NCc1ccc(F)cc1`, 668 s.

The values are drawn from the METLIN SMRT retention time set (Domingo-Almenara et al. 2019).
